Results published in PMC10035370, “Targeting Tumor Angiogenesis with the Selective VEGFR-3 Inhibitor EVT801 in Combination with Cancer Immunotherapy” (Cancer Research Communications, 2022).
pIC50: −log10 of the molar value.

Assays:
[1] = system: 4T1 tumors; assay: 4T1 mammary carcinoma mouse model, with anti-CTLA-4; assay type: in vivo, mice
Description: The 4T1 mammary carcinoma mouse models were used as reported previously ([26]). Briefly, 1 × 10^5 4T1 cells were implanted into mammary fat pads of BALB/c mice. […] Tumors were measured two to three times weekly with calipers. The tumor volume (V) was calculated using the formula V = 0.52 × a^2 × b (a: smallest tumor diameter; b: largest tumor diameter). The tumors, lungs, and axillary lymph nodes were removed at day 21 for treatment with anti-PD-1, and day 28 for treatment with anti-CTLA-4. The tumors and the lungs were embedded in paraffin for histology studies. Intraperitoneal injection (10 mg/kg of antibody diluted at 1 mg/mL) was performed at day 6, day 11, and day 16 for treatment with anti-PD-1, and at day 6, day 11, day 16, and day 21 for treatment with anti-CTL-4 by using a 26G needle fitted to a plastic syringe in the right lower quarter of mice abdomen. The metastatic scoring was determined as follows: (0) no metastasis; ([1]) 1 to 20 metastases < 50 μm; ([2]) between 21 and 50 metastases < 50 μm; ([3]) 1 or more metastases > […]; ([4]) 1 or more metastases > […].
Whole blood samples were treated twice with ACK lysing buffer (Thermo Fisher Scientific, A1049201) to lyse red blood cells. Cell suspension were incubated for 15 minutes on ice in blocking buffer (FACS buffer: PBS 1 X, 1% FBS, 5 mmol/L Ethylene Diamine Tetra acetic Acid (EDTA) containing 3% rat serum, 3% mouse serum, 1:660 FC blocking antibody). Cell suspension were stained with an antibody mix either for myeloid-derived suppressor cell (MDSC) staining [anti-CD45 PE-Vio770 (Miltenyi Biotec, 130-110-799), anti-CD11b APC (eBioscience, 17-0112-82), anti-Ly6C AF700 (BD, 561237), anti-Ly6G BV421 (BD, 562737), anti-F4/80 BV510 (BD, 743280), anti-IA/I-E (MHCII), PercpCy5.5 (BD, 562363), anti-CD124 PE (BioLegend, 144804) or anti-rat IgG2bPE (Ozyme, BLE400608) isotype control, and the green fluorescent reactive dye (Thermo Fisher Scientific, L34960)], or for T-cell staining [anti-CD45 PE-Vio770 (Miltenyi Biotec, 130-110-799), anti-Thy1 APC-Cy7 (BioLegend, 105328), anti-CD4 PercpVio-700 (Miltenyi Biotec, 130-109-497), anti-CD8 BV510 (BD, 563068), anti-CD69 BV421 (BD 562920) or anti-rat IgG1a-BV421 (BD, 562919), and the green fluorescent reactive dye (Thermo Fisher Scientific, L34960)]. After incubation for 30 minutes at 4°C in the dark, cells were washed and suspended in FACS buffer. A total of 50 μL of CountBright Absolute counting beads (Thermo Fisher Scientific, C36950) were added just before cell acquisition on a FACS Fortessa X20 (Becton Dickinson). Analysis was performed with the FlowJo software. For calculation of cell concentration, the following formula was used: Concentration of cells/μL = (number of cell events/number of bead events) × (assigned bead count of the lot/volume of analyzed sample). Monocytic MDSCs (M-MDSC) were characterized as MHC-II^neg/CD11b^+/Ly6C^+/Ly6G^neg, whereas polymorphonuclear MDSCs (PMN-MDSC) were characterized as MHC-II^neg/CD11b^+/Ly6C^neg/Ly6G^+, as described previously ([31]). Among those populations, CD124^+ cells were considered as the activated subpopulations ([32]).
Blood was centrifuged at 8,000 rpm, for 5 minutes, at 4°C and the plasma was collected by harvesting the supernatant and stored at −80°C. Plasma samples were thawed at 4°C extemporaneously for MesoScale Discovery (MSD) analysis on a U-PLEX-4 Assay coated plate (U-PLEX Mouse KC, U-PLEX Mouse MIP-1α/CCL3, U-PLEX Mouse MIP-1β/CCL4, U-PLEX Mouse Rantes/CCL5 K15069L-1, Meso Scale Discovery). Analysis was performed following manufacturer's instructions.

[2] = target: VEGFR-3 (Homo sapiens, UniProt P35916); assay: Biochemical kinase assay (in vitro assay), VEGFR-3; set-up: expressed in transfected cells; host or cells: HEK293T; conditions: read-out: IC50 in biochemical assays, VEGFR-3
Description: Sigma protein kinase assay kits were used. 125 μL per well of Poly-Glu-Tyr (PGT) solution (250 μg/mL of PGT in PBS without Ca^2+, Mg^2+ and sodium bicarbonate) was added in a 96-well plate and overnight incubation was performed at 37 °C. The day after, coating solution was removed and wells were washed with 300 μL of PBS-Tween-20 0.05 %. The washing buffer was removed and wells were dried for 2 h at 37 °C. 90 μL of the kinase buffer was supplemented with ATP (30 μM for VEGFR-1 and VEGFR-3, and 15 μM for VEGFR-2), and the compound (EVT801 or SAR401849 at the indicated concentration or 1 % DMSO for the vehicle control). The phosphorylation reaction was initiated by the addition of 20 μL of kinase buffer without ATP supplemented with 100 ng of the tyrosine kinase (or without tyrosine kinase as control). Plates were incubated with gentle agitation at room temperature for 30 min. After 3 washes with 300 μL of washing buffer, 100 μL of phosphotyrosine specific monoclonal antibody conjugated to HRP (1:30,000) was added onto the phosphorylated PGT. Plates were incubated for 30 min at room temperature under gentle agitation. Then, 3 washes with 300 μL of washing buffer were performed. […] After 7 min at room temperature, the reaction was stopped by addition of 100 μL of […], and absorbance was determined with an Endvision spectrophotometer at 492 nm.

[3] = endpoint, 30 mg/kg twice per day

Sequence of VEGFR-3 (P35916 25-1363): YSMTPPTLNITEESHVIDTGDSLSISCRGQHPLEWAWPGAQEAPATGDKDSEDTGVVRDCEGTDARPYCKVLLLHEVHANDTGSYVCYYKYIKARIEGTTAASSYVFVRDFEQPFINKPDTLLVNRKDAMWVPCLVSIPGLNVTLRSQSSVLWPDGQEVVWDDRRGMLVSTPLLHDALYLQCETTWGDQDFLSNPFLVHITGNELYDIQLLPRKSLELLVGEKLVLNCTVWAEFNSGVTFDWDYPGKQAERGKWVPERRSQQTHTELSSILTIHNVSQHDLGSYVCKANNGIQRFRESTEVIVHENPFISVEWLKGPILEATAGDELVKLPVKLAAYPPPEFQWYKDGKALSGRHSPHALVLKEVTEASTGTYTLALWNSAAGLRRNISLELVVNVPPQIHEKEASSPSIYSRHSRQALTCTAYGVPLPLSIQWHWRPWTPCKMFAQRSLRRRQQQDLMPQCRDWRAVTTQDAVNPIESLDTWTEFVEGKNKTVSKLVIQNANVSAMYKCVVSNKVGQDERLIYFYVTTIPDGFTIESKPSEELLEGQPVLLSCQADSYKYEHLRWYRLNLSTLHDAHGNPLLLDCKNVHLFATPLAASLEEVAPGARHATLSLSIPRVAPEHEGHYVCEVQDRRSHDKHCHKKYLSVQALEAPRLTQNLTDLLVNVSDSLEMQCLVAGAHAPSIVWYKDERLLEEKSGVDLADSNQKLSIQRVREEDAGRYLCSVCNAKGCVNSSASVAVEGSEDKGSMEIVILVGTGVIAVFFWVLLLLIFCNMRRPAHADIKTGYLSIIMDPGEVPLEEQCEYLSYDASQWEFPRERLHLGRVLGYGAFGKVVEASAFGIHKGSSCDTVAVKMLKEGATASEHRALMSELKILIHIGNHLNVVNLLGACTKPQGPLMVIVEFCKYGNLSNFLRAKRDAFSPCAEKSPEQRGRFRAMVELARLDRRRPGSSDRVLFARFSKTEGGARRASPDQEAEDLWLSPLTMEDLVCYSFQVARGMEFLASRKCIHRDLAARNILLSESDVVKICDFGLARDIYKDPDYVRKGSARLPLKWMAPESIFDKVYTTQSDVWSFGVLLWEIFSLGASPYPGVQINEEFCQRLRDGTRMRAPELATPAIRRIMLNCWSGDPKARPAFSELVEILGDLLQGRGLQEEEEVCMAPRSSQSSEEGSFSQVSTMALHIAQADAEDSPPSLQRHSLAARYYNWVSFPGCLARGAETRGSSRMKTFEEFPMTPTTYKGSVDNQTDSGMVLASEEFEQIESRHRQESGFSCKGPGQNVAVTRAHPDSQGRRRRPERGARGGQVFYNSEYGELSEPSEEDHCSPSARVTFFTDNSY

## CCn1c(N)c(-c2ncc[nH]2)c(=O)c2ccc(C#C[C@@](C)(O)COC)nc21 [EVT801]
[1]; 14 hours after the last dosing
  reduction in circulation of each activated (CD124+) MDSC subpopulation (PMN-MDSCs, M-MDSCs) in the blood: 2 fold
[1]; endpoint
  increase in number of circulating CD8+ T cells: 30%
[1]; [3]
  change in circulating CCL4 levels: −50%
  change in circulating CCL5 levels: −30%
  circulating CCL3 levels: unchanged
[1]; orthotopic, EVT801 30 mg/kg twice per day, anti-CTLA-4 twice per week, or both
  T/C ratio, tumor growth: 53%
[2]
  pIC50: 7.96
